Read-outs that look alike come from different tables or passages of the source.
Key:
[1] = Log P by HPLC on reversed phase columns, method [a] (EEC directive 79/831 Annex V.A8); type: physicochemical; settings: reversed phase HPLC column, read-out: logP
In short: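 Log P calibrated with C3–C16 straight-chain alkan-2-ones of known Log P, interpolating linearly between retention times. Method per EEC 79/831 Annex V.A8: reversed-phase LC-UV in the acidic range, water/0.1% formic acid and acetonitrile gradient from 10% to 95% acetonitrile.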

[2] = tested on: Colletotrichum lindemuthianum; test: Example B: in vitro cell test, spore germination and mycelium growth in liquid culture; type: cell-based; settings: 144 h, 20 ppm of tested compound, 6 days incubation, read-out: efficacy (inhibition of fungal growth)
Procedure: • Solvent: dimethyl sulfoxide Culture medium: 14.6 g anhydrous D-glucose (VWR), • 7.1 g mycological peptone (Oxoid), • 1.4 g granulated yeast extract (Merck), QSP 1 liter Inoculum: spore suspension The tested compounds were solubilized in dimethyl sulfoxide and the solution used to prepare the required range of concentrations. The final concentration of dimethyl sulfoxide used in the assay was ≤1%. A spore suspension of Colletotrichum lindemuthianum was prepared and diluted to the desired spore density. The compounds were evaluated for their ability to inhibit spore germination and mycelium growth in liquid culture assay. The compounds were added in the desired concentration to the culture medium with spores. After 6 days incubation, fungi-toxicity of compounds was determined by spectrometric measurement of mycelium growth. Inhibition of fungal growth was determined by comparing the absorbance values in wells containing the tested compounds with the absorbance in control wells without tested compounds.

Phakopsora pachyrhizi = test: Example F: in vivo preventive test (soybeans), DMSO/acetone/Tween 80; settings: 288 h, 500 ppm of tested compound, preventive spray, soybean, evaluated 12 days after inoculation, read-out: efficacy
Procedure: Solvent: 5% by volume of dimethyl sulfoxide • 10% by volume of acetone
Emulsifier: 1 μL of Tween® 80 per mg of active ingredient
The tested compounds were made soluble and homogenized in a mixture of dimethyl sulfoxide/acetone/Tween® 80 and then diluted in water to the desired concentration.
The young plants of wheat were treated by spraying the tested compound prepared as described above. Control plants were treated only with an aqueous solution of acetone/dimethyl sulfoxide/Tween® 80.
After 24 hours, the plants were contaminated by spraying the leaves with an aqueous suspension of Phakospora pachyrhizi spores. The contaminated soybean plants were incubated for 24 hours at 24° C. and at 100% relative humidity and then for 11 days at 24° C. and at 70-80% relative humidity.
The test was evaluated 12 days after the inoculation. 0% means an efficacy which corresponds to that of the control plants while an efficacy of 100% means that no disease was observed.

Alternaria brassicae = test: Example E: in vivo preventive test (cabbage); settings: 144 h, 500 ppm of tested compound, preventive spray, evaluated 6 days after inoculation, read-out: efficacy
Procedure: Solvent: 5% by volume of dimethyl sulfoxide • 10% by volume of acetone Emulsifier: 1 μL of Tween® 80 per mg of active ingredient The tested compounds were made soluble and homogenized in a mixture of Dimethyl sulfoxide/Acetone/Tween® 80 and then diluted in water to the desired concentration. The young plants of cabbage were treated by spraying the tested compound prepared as described above. Control plants were treated only with an aqueous solution of Acetone/Dimethyl sulfoxide/Tween® 80. After 24 hours, the plants were contaminated by spraying the leaves with an aqueous suspension of Alternaria brassicae spores. The contaminated cabbage plants were incubated for 6 days at 20° C. and at 100% relative humidity. The test was evaluated 6 days after the inoculation. 0% means an efficacy which corresponds to that of the control plants while an efficacy of 100% means that no disease was observed.

[3] = log P determined according to method [a] (HPLC on reversed phase columns)
[4] = method [a], HPLC on reversed phase columns

`FC(F)c1nnc(-c2cnc(NC3(c4ccccc4)CCC3)nc2)s1` [I.159, 5-[5-(difluoromethyl)-1,3,4-thiadiazol-2-yl]-N-(1-phenylcyclobutyl)pyrimidin-2-amine] gave a chromatographic logP [1, 3] of 3.54 and an inhibition of growth at 20 µg/mL [2] of 90 to 100%.

`C#CCNc1ncc(-c2nnc(C(F)F)o2)cn1` [I.063, 5-[5-(difluoromethyl)-1,3,4-oxadiazol-2-yl]-N-(prop-2-yn-1-yl)pyrimidin-2-amine] gave an inhibition of growth at 20 µg/mL [2] of 90 to 100%.

With `FC(F)c1nnc(-c2cnc(CC3CCCCC3)nc2)o1` [I.083, 2-(cyclohexylmethyl)-5-[5-(difluoromethyl)-1,3,4-oxadiazol-2-yl]pyrimidine] the pest or weed control at 500 µg/mL (Phakopsora pachyrhizi) was 90 to 100%.

`CC(C)C(Nc1ncc(-c2nnc(C(F)F)o2)cn1)c1ccccc1` (racemic) [I.139, 5-[5-(difluoromethyl)-1,3,4-oxadiazol-2-yl]-N-[(1RS)-2-methyl-1-phenylpropyl]pyrimidin-2-amine] gave a chromatographic logP [1, 3] of 3.57 and an inhibition of growth at 20 µg/mL [2] of 90 to 100%.

`FC(F)c1nnc(-c2cnc(-c3ccsc3)nc2)o1` [I.072, 5-[5-(difluoromethyl)-1,3,4-oxadiazol-2-yl]-2-(3-thienyl)pyrimidine] showed a pest or weed control at 500 µg/mL (Alternaria brassicae) of 70 to 79%.

`CSc1ccc(-c2nnc(C(F)F)o2)cc1` [I.002, 2-(difluoromethyl)-5-[4-(methylsulfanyl)phenyl]-1,3,4-oxadiazole] showed a pest or weed control at 500 µg/mL (Alternaria brassicae) of 70 to 79%.

Molecule `FC(F)c1nnc(-c2ccc(N3CCCCC3)nc2)o1` [I.040, 5-[5-(difluoromethyl)-1,3,4-oxadiazol-2-yl]-2-(piperidin-1-yl)pyridine] has a pest or weed control at 500 µg/mL (Alternaria brassicae) of 70 to 79%.

With `FC(F)c1nnc(-c2ccc(-c3nnc(C(F)F)o3)cc2)o1` [I.019, 2,2′-(1,4-phenylene)bis[5-(difluoromethyl)-1,3,4-oxadiazole]] the pest or weed control at 500 µg/mL (Phakopsora pachyrhizi) was 90 to 100%.

Work on `Fc1ccccc1C1(Nc2ccc(-c3nnc(C(F)F)o3)cc2)CC1` [I.025, 4-[5-(difluoromethyl)-1,3,4-oxadiazol-2-yl]-N-[1-(2-fluorophenyl)cyclopropyl]aniline] yielded an inhibition of growth at 20 µg/mL [2] of 80 to 89%.

Work on `N#Cc1ccc(C2(Nc3ncc(-c4nnc(C(F)F)o4)cn3)CC2)cc1` [I.152, 4-[1-({5-[5-(difluoromethyl)-1,3,4-oxadiazol-2-yl]pyrimidin-2-yl}amino)cyclopropyl]benzonitrile] yielded a chromatographic logP [1, 3] of 2.33 and an inhibition of growth at 20 µg/mL [2] of 90 to 100%.

`CON(Cc1ccc(Cl)cc1)c1ncc(-c2nnc(C(F)F)o2)cn1` [I.169, N-(4-chlorobenzyl)-N-{5-[5-(difluoromethyl)-1,3,4-oxadiazol-2-yl]pyrimidin-2-yl}-O-methylhydroxylamine] showed a chromatographic logP [1, 3] of 3.31 and an inhibition of growth at 20 µg/mL [2] of 80 to 89%.

For `FC(F)c1nnc(-c2ccc(Nc3ncccn3)cc2)o1` [I.013, N-{4-[5-(difluoromethyl)-1,3,4-oxadiazol-2-yl]phenyl}pyrimidin-2-amine], the inhibition of growth at 20 µg/mL [2] was 90 to 100% and the pest or weed control at 500 µg/mL (Alternaria brassicae) was 90 to 100%.

In the case of `FC(F)c1nnc(-c2cnc(NCC3CCOCC3)nc2)o1` [I.105, 5-[5-(difluoromethyl)-1,3,4-oxadiazol-2-yl]-N-(tetrahydro-2H-pyran-4-ylmethyl)pyrimidin-2-amine], the chromatographic logP [1, 3] is reported as 1.73 and the pest or weed control at 500 µg/mL (Alternaria brassicae) is reported as 80 to 89%.

With `Fc1ccc(CNc2ncc(-c3nnc(C(F)F)o3)cn2)cc1` [I.112, 5-[5-(difluoromethyl)-1,3,4-oxadiazol-2-yl]-N-(4-fluorobenzyl)pyrimidin-2-amine] the chromatographic logP [1, 3] was 2.64 and the inhibition of growth at 20 µg/mL [2] was 70 to 79%.

`FC(F)c1nnc(-c2cnc(NCc3ccccc3)nc2)o1` [I.088, N-benzyl-5-[5-(difluoromethyl)-1,3,4-oxadiazol-2-yl]pyrimidin-2-amine] showed a pest or weed control at 500 µg/mL (Phakopsora pachyrhizi) of 90 to 100%.

In the case of `Nc1ncc(-c2nnc(C(F)F)o2)cn1` [I.059, 5-[5-(difluoromethyl)-1,3,4-oxadiazol-2-yl]pyrimidin-2-amine], the pest or weed control at 500 µg/mL (Phakopsora pachyrhizi) is reported as 90 to 100%.

`FC(F)c1nnc(-c2ccc(-c3ccccc3)cc2)o1` [I.007, 2-([biphenyl]-4-yl)-5-(difluoromethyl)-1,3,4-oxadiazole] showed a pest or weed control at 500 µg/mL (Alternaria brassicae) of 80 to 89%.

For `N#CC(Nc1ncc(-c2nnc(C(F)F)o2)cn1)c1ccc(F)cc1` (racemic) [I.141, (2RS)—({5-[5-(difluoromethyl)-1,3,4-oxadiazol-2-yl]pyrimidin-2-yl}amino)(4-fluorophenyl)acetonitrile], the chromatographic logP [1, 3] was 2.65 and the inhibition of growth at 20 µg/mL [2] was 70 to 79%.

`FC(F)c1nnc(-c2ccc(Cn3ccnc3)cc2)o1` [I.010, 2-(difluoromethyl)-5-[4-(1H-imidazol-1-ylmethyl)phenyl]-1,3,4-oxadiazole] showed a pest or weed control at 500 µg/mL (Alternaria brassicae) of 90 to 100%.

Work on `FC(F)(F)c1nnc(-c2cnc(NC3(c4ccccc4)CCC3)nc2)s1` [I.173, N-(1-phenylcyclobutyl)-5-[5-(trifluoromethyl)-1,3,4-thiadiazol-2-yl]pyrimidin-2-amine] yielded a chromatographic logP [1, 4] of 4.12 and an inhibition of growth at 20 µg/mL [2] of 80 to 89%.

In the case of `FC(F)c1nnc(-c2ccc(-n3ccnn3)cc2)o1` [I.005, 2-(difluoromethyl)-5-[4-(1H-1,2,3-triazol-1-yl)phenyl]-1,3,4-oxadiazole], the pest or weed control at 500 µg/mL (Alternaria brassicae) is reported as 90 to 100%.

`FC(F)c1nnc(-c2ccc(COc3ccc(Cl)cc3)cc2)o1` [I.024, 2-{4-[(4-chlorophenoxy)methyl]phenyl}-5-(difluoromethyl)-1,3,4-oxadiazole] gave a pest or weed control at 500 µg/mL (Phakopsora pachyrhizi) of 90 to 100%.

For `FC(F)c1nnc(-c2cnc(Cl)nc2)o1` [I.061, 2-chloro-5-[5-(difluoromethyl)-1,3,4-oxadiazol-2-yl]pyrimidine], the inhibition of growth at 20 µg/mL [2] was 90 to 100%.

Molecule `Fc1ccc(Cc2ncc(-c3nnc(C(F)F)o3)cn2)c(F)c1` [I.115, 2-(2,4-difluorobenzyl)-5-[5-(difluoromethyl)-1,3,4-oxadiazol-2-yl]pyrimidine] has a chromatographic logP [1, 3] of 2.7 and a pest or weed control at 500 µg/mL (Phakopsora pachyrhizi) of 70 to 79%.

Molecule `FC(F)c1nnc(-c2ccc(Br)cc2)o1` [I.009, 2-(4-bromophenyl)-5-(difluoromethyl)-1,3,4-oxadiazole] has a pest or weed control at 500 µg/mL (Phakopsora pachyrhizi) of 70 to 79%.

`Fc1ccccc1Nc1ccc(-c2nnc(C(F)F)o2)cc1` [I.017, N-{4-[5-(difluoromethyl)-1,3,4-oxadiazol-2-yl]phenyl}-2-fluoroaniline] gave an inhibition of growth at 20 µg/mL [2] of 90 to 100% and a pest or weed control at 500 µg/mL (Alternaria brassicae) of 80 to 89%.

In the case of `FC(F)c1nnc(-c2cnc(NCC3CC3)nc2)o1` [I.067, N-(cyclopropylmethyl)-5-[5-(difluoromethyl)-1,3,4-oxadiazol-2-yl]pyrimidin-2-amine], the inhibition of growth at 20 µg/mL [2] is reported as 80 to 89%.

`CN(c1ccccc1)c1ncc(-c2nnc(C(F)F)o2)cn1` [I.087, 5-[5-(difluoromethyl)-1,3,4-oxadiazol-2-yl]-N-methyl-N-phenylpyrimidin-2-amine] gave a pest or weed control at 500 µg/mL (Alternaria brassicae) of 90 to 100%.

In the case of `FC(F)(Cl)c1nnc(-c2cnc(NC3(c4ccccc4)CCC3)nc2)o1` [I.176, 5-{5-[chloro(difluoro)methyl]-1,3,4-oxadiazol-2-yl}-N-(1-phenylcyclobutyl)pyrimidin-2-amine], the chromatographic logP [1, 4] is reported as 4.08 and the inhibition of growth at 20 µg/mL [2] is reported as 70 to 79%.

`Fc1cccc(Nc2ncc(-c3nnc(C(F)F)o3)cn2)c1` [I.094, 5-[5-(difluoromethyl)-1,3,4-oxadiazol-2-yl]-N-(3-fluorophenyl)pyrimidin-2-amine] showed a pest or weed control at 500 µg/mL (Alternaria brassicae) of 90 to 100%.

Molecule `COCCNc1ncc(-c2nnc(C(F)F)o2)cn1` [I.068, 5-[5-(difluoromethyl)-1,3,4-oxadiazol-2-yl]-N-(2-methoxyethyl)pyrimidin-2-amine] has an inhibition of growth at 20 µg/mL [2] of 90 to 100% and a pest or weed control at 500 µg/mL (Alternaria brassicae) of 70 to 79%.

With `FC(F)c1nnc(-c2cnc(NC3(c4ccc(Cl)cc4)CCCCC3)nc2)o1` [I.182, N-[1-(4-chlorophenyl)cyclohexyl]-5-[5-(difluoromethyl)-1,3,4-oxadiazol-2-yl]pyrimidin-2-amine] the chromatographic logP [1, 4] was 4.4 and the inhibition of growth at 20 µg/mL [2] was 70 to 79%.

In the case of `FC(F)c1nnc(-c2cnc(NC3(c4ccccc4Br)CC3)nc2)o1` [I.183, N-[1-(2-bromophenyl)cyclopropyl]-5-[5-(difluoromethyl)-1,3,4-oxadiazol-2-yl]pyrimidin-2-amine], the chromatographic logP [1, 4] is reported as 3.49 and the inhibition of growth at 20 µg/mL [2] is reported as 80 to 89%.

Source: patent US20220144815A1, “1,3,4-OXADIAZOLES AND THEIR DERIVATIVES AS NEW ANTIFUNGAL AGENTS” (Bayer Aktiengesellschaft, priority 2018, published 2022)
